Measured values from US11452712B2, “Methods and compositions involving (S)-bucindolol” (ARCA BIOPHARMA, INC., priority 2008, dated 2022).
pKi: −log10 of the molar value.

How the values were obtained:
[1] = tested on: Human umbilical vein endothelial cells; test: CaI-stimulated NO release in HUVECs (electrochemical nanosensor); format: cell-based; conditions: 1.0 μM drug, 6 hr pretreatment; for NO release: 1.0 μM CaI stimulation, mean±S.D.; for increase in NO release: versus control
Method: (§1) Human umbilical vein endothelial cells were isolated into primary cultures from healthy female donors by Clonetics (San Diego, Calif.) and purchased as proliferating cells. All cell culture donors were healthy, with no pregnancy or prenatal complications. None of the donors took any drugs regularly and all were nonsmokers and consumed regular caloric/content diet. The cultured cells were incubated in 95% air/5% CO2 at 37° C. and passage by an enzymatic (trypsin) procedure. The confluent cells (4 to 5×10^5 cells per 35-mm dish) were placed with minimum essential medium containing 3 mM L-arginine and 0.1 mM (6R)-5,6,7,8-tetrahydrobiopterin (BH4). Before the experiments, the cells (from second or third passage) were rinsed twice with Tyrode-HEPES buffer with 1.8 mM CaCl2. Bucindolol and its enanatiomers were obtained from Arca Discovery (Denver, Colo.).
(§2) Measurement of NO was carried out with electrochemical nanosensors (FIG. 1). Their design was based on previously developed and well-characterized chemically modified carbon-fiber technology (Lvovich and Scheeline, 1997; Malinski and Taha, 1992). Each of the nanosensors was constructed by depositing a sensing material on the tip of a carbon fiber (length 4-5 μm, diameter 0.2-0.5 μm). The fibers were sealed with nonconductive epoxy and electrically connected to copper wires with conductive silver epoxy. The inventors used a conductive film of polymeric nickel (II) tetrakis (3-methoxy-4-hydroxyphenyl) porphyrin for the NO-sensor.
The NO nanosensors (diameter 1-2 μm) with a platinum wire (0.1 mm) counter electrode and saturated calomel reference electrode (SCE) were applied. Differential pulse voltammetry (DPV) and amperometry were performed with a computer-based Gamry VFP600 multichannel potentiostat. DPV was used to measure the basal NO concentrations, and amperometry was used to measure changes in NO concentrations from its basal level with time. The DPV current at the peak potential characteristic for NO oxidation (0.65 V) […] was directly proportional to the local concentrations of these compounds in the immediate vicinity of the sensor. Linear calibration curves (current vs. concentration) were constructed for each sensor from 10 nM to 3 μM before and after measurements with aliquots of NO standard solutions, respectively. The detection limit of the sensors was 1.0 nM.
(§3) The quantification of each analyte (concentration in nmol/L) was performed using a maximum current from amperograms and standard calibration curves. The reproducibility of measurements with nanosensors is relatively high, as previously described (Lvovich and Scheeline, 1997; Malinski and Taha, 1992). […] The sensors were slowly raised 5±2 μm from the surface of a single endothelial cell.
(§4) The HUVEC preparation is stable over the course of these experiments with the cells remaining viable and active responses to NO stimulation in culture for >24 hours. For robust statistical analysis, randomly selected cells were used for each concentration and type of drug used in these analyses.

[2] = tested on: Human umbilical vein endothelial cells; test: CaI-stimulated ONOO− release in HUVECs (nanosensor); format: cell-based; conditions: 1.0 μM drug; for ONOO− levels: CaI stimulation, mean±S.D.; for reduction of ONOO− levels: versus control
Text: FIG. 1. Schematic diagram of a NO nanosensor placed in close proximity to the surface of a single endothelial cell. The nanosensor measures the levels of NO, O2^−, and ONOO^− from the intact endothelium in real time. The sensors are made by depositing a sensing material on the tip of carbon fiber with a diameter of about 0.5 μm. The fibers are sealed with nonconductive epoxy and electrically connected to wires (gold, copper) with conductive silver epoxy.
as §1, §3, §4

[3] = tested on: Human umbilical vein endothelial cells; test: CaI-stimulated NO/ONOO− release ratio in HUVECs; format: cell-based; conditions: for increase in NO/ONOO− ratio: 1.0 μM drug; for favorable effect on endothelial function as compared to bucindolol racemate: NO and ONOO− release, HUVECs
Method: as §1, §2, §3
The most comprehensive measurement of endothelial function is the ratio of NO to
ONOO^− following treatment with these agents. […] The basis for these differences is not understood but may be due to genetic variability in the eNOS protein. Bucindolol racemate (1.0 μM) increased the NO/ONOO^− ratio in white donors (49%), Mexican American donors (23%), and African American donors (38%) as shown in FIGS. 11-13. […] Again, the favorable effects of bucindolol and its enanatiomers were much more apparent at the higher dose (10.0 μM) by at least two fold. The effect at the high concentration was especially evident in higher risks populations (African Americans, Mexican Americans).

[4] = target: T1, β1AR Arg/Arg (Homo sapiens, UniProt P08588, G389R); test: Force development in isolated failing human right ventricular trabeculae, β1AR Arg/Arg; format: cell-based
T1 construct: isolated failing human right ventricular trabeculae; from tissue; host or cells: isolated failing human right ventricular trabeculae, β1AR Arg/Arg genotype

[5] = target: T2, β1AR Gly carrier (Homo sapiens, UniProt P08588); test: Force development in isolated failing human right ventricular trabeculae, β1AR Gly carrier; format: cell-based
T2 construct: isolated failing human right ventricular trabeculae; from tissue; host or cells: isolated failing human right ventricular trabeculae, β1AR 389 Gly carrier genotypes

[6] = cited from earlier work
[7] = target: T3, β1 389 Arg/Arg receptor (Homo sapiens, UniProt P08588, G389R); test: Competition binding in human LV membranes, β1 389 Arg/Arg
T3 construct: left ventricular membranes prepared from one patient who had the β1 389 Arg/Arg receptor; from tissue; host or cells: human left ventricular membranes, one patient, genotype 389 Arg/Arg
Method: (§5) FIG. 14A, 14B. 14A—Competition curve between S- or R-bucindolol in human LV membranes that are 86% β1. AR and genotypically 389 Arg/Arg. The respective Kis are 0.49 nM and 14.0 nM for the S- and R-isomers. 14B—Competition curve between S- or R-bucindolol in human LV membranes that are 83% β1. AR and genotypically 389 Gly/Gly. The respective Kis are 0.59 nM and 26.3 nM for the S- and R-isomers.
(§6) FIG. 14 gives the binding of S- and R-bucindolol in left ventricular membranes prepared from one patient who had the β1 389 Arg/Arg receptor (FIG. 14A), and another with the Gly/Gly (FIG. 14B) genotype. As can be observed, the S-isomer has much higher affinity, in both genotypes. In addition, the Kis are similar for both the S- (0.5-0.6 nM) and R- (around 14-26 nM) isomers in the Arg/Arg and Gly/Gly preparations. Similar results were obtained in the presence of Gpp(NH)p.

[8] = target: T4, β1 389 Gly/Gly receptor (Homo sapiens, UniProt P08588); test: Competition binding in human LV membranes, β1 389 Gly/Gly; conditions: 83% β1 AR, genotype 389 Gly/Gly
T4 construct: human LV membranes that are 83% β1; AR and genotypically 389 Gly/Gly; from tissue; host or cells: human left ventricular membranes, one patient, genotype 389 Gly/Gly
Method: as §5, §6

[9] = human LV membranes, 86% β1 AR, genotype 389 Arg/Arg
[10] = span over the Arg/Arg and Gly/Gly preparations

T3 sequence (P08588 whole entry G389R): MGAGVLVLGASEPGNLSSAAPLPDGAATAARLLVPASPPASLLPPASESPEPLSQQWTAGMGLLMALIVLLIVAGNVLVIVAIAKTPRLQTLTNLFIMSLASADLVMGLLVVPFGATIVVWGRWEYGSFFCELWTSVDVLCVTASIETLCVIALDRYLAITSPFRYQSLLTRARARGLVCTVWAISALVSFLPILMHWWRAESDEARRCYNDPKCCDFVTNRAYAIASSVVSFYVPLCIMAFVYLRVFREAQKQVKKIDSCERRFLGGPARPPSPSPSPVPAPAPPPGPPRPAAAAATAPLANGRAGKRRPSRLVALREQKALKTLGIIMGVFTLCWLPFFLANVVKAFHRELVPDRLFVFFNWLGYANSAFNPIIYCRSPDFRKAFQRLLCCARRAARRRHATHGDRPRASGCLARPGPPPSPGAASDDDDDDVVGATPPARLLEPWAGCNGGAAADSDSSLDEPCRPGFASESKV
T4 sequence (P08588 whole entry): as the sequence (P08588 whole entry G389R) above, with R389G counted along it
T2 sequence (P08588 whole entry): as the sequence (P08588 whole entry G389R) above, with R389G counted along it
T1 sequence (P08588 whole entry G389R): as the sequence (P08588 whole entry G389R) above

Structure (SMILES)	NO release ([1]; African American donors)	increase in NO release ([1]; African American donors)	NO release ([1]; Mexican American donors)	increase in NO release ([1]; Mexican American donors)	NO release ([1]; non-Hispanic white donors)	increase in NO release ([1]; non-Hispanic white donors)	ONOO− levels ([2]; African American donors)	reduction of ONOO− levels ([2]; African American donors)	ONOO− levels ([2]; Mexican American donors)	reduction of ONOO− levels ([2]; Mexican American donors)	ONOO− levels ([2]; non-Hispanic white donors)	reduction of ONOO− levels ([2]; non-Hispanic white donors)	favorable effect on endothelial function as compared to bucindolol racemate [3]	pKi [7, 9]	pKi [7, 10]	pKi [8]	other results
CC(C)(Cc1c[nH]c2ccccc12)NCC(O)COc1ccccc1C#N (racemic) [bucindolol, 2-(3-(1-(1H-indol-3-yl)-2-methylpropan-2-ylamino)-2-hydroxypropoxy)benzonitrile]	306 ± 25 nM	22%	321 ± 28 nM	5%	475 ± 27 nM	16%	378 ± 30 nM	12%	422 ± 27 nM	14%	244 ± 29 nM	19%	–	–	–	–	increase in NO/ONOO− ratio ([3]; African American donors): 38%; increase in NO/ONOO− ratio ([3]; Mexican American donors): 23%; increase in NO/ONOO− ratio ([3]; white donors): 49%; functional behaviour at the receptor (force development) ([4]; high signal transduction, adenylyl cyclase activated by forskolin): inverse agonist; functional behaviour at the receptor (force development) ([4]; low levels of signal transduction (low receptor activation)): neutral antagonist; functional behaviour at the receptor (force development) ([5]; in the presence of forskolin): neutral antagonist; functional behaviour at the receptor (force development) ([5]; low activation states): inverse agonist; hazard ratio for the primary endpoint of all-cause mortality ([6]; advanced heart failure, at premature stop of trial, C.I.s 0.78-1.02): 0.90; mortality versus placebo (in words) ([6]; at early termination of BEST): no significant difference in mortality; reduction of mortality or heart failure hospitalization ([6]; entire BEST cohort, p<0.0001): 19%
CC(C)(Cc1c[nH]c2ccccc12)NCC(O)COc1ccccc1C#N (single isomer, unassigned) [(R)-bucindolol]	–	–	–	–	–	–	–	–	–	–	–	–	less activity	7.85	7.59 to 7.85	7.58	–
CC(C)(Cc1c[nH]c2ccccc12)NCC(O)COc1ccccc1C#N (single isomer, unassigned) [(S)-bucindolol]	318 ± 16 nM	27%	358 ± 32 nM	17%	553 ± 35 nM	35%	352 ± 26 nM	18%	419 ± 34 nM	15%	240 ± 24 nM	23%	more pronounced	9.31	9.22 to 9.30	9.23	–
CC(C)NCC(O)COc1ccc(CC(N)=O)cc1 (stereo not shown) [atenolol]	–	–	–	–	–	–	–	–	–	–	–	–	–	–	–	–	effect on NO/ONOO− ratio (in words) ([3]; 1.0 and 10.0 μM, three donor groups): failed to produce an effect
